According to patent publication US11453703B2, “Heterotandem bicyclic peptide complexes” (BicycleTX Limited, priority 2018, dated 2022):

How the values were obtained:
[1] = test system: human PBMC co-cultured with 4T1-D02 (Nectin4+); assay: Human PBMC-4T1 co-culture (cytokine release) assay; type: cell-based; details: anti-CD3 stimulated PBMC, 48 hours; for EC50: IFN-γ secretion
Protocol: Mouse mammary gland tumor cell line 4T1-1 (4T1-Parental) and murine Nectin-4 overexpressing 4T1 (4T1-D02) were cultured in RPMI1640 supplemented with 10% heat-inactivated Fetal Bovine Serum, 100 I.U/ml Penicillin and 100 I.U/Streptomycin, 20 mM HEPES, 1× Non-Essential Amino Acids, and 2 mM L-Glutamine (RPMI working medium). Frozen PBMCs from healthy human donors were thawed and washed one time in room temperature PBS, and then resuspended in RPMI working medium. For tumor cell and PBMC co-culture, 10000 PBMCs and 2000 tumor cells (5:1) were mixed and plated in each well of a 384 well plate. For stimulating human PBMCs, 125 ng/ml of soluble anti-CD3 mAb (clone OKT3) was added to the culture on day 0. Test, control compounds or vehicle controls were added to respective wells and brought the final volume per well to 100u1. Plates were incubated in a 37° C. cell culture incubator with 5% CO2 for up to three days. Supernatants were collected 48 hours after stimulation, and human IL-2 and IFFγ were detected using HTRF assays. Raw data were analyzed using Excel or Prism software to generate standard curves to interpolate protein concentrations. Data represents one study with three different donor PBMC tested in experimental duplicates.

[2] = molecular target: T1, CD137 (Homo sapiens, UniProt Q07011); assay: CD137 reporter assay, co-culture with Nectin-4 tumour cells; type: cell-based; parameters: host or cells: Jurkat reporter cells; details: for Fold Induction over Background: tumour target Nectin4, co-culture with H1376, 6 h;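 as to all read-outs here: jurkat reporter cells co-cultured with tumour cells and test article for 6 h, luminescence signal relative to Jurkat plus tumour cells lacking test article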
T1 sequence (Q07011 24-255): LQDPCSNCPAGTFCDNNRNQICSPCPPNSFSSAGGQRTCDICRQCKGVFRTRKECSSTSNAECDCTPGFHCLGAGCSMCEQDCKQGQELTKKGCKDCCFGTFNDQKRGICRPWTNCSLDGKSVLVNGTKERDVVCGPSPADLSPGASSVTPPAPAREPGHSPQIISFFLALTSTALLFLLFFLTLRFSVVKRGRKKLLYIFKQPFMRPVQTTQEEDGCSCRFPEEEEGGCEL

[3] = molecular target: T1, CD137; assay: CD137 Biacore (SPR) binding assay; parameters: purchased R&D systems; details: biotinylated human CD137, 25° C.
Protocol: Biacore experiments were performed to determine ka (M^−1s^−1), kd (s^−1), KD (nM) values of heterotandem peptides binding to human CD137 protein. […] The protein was desalted to remove uncoupled biotin using spin columns into PBS.
For analysis of peptide binding, a Biacore T200 or a Biacore 3000 instrument was used with a XanTec CMD500D chip. Streptavidin was immobilized on the chip using standard amine-coupling chemistry at 25° C. with HBS-N (10 mM HEPES, 0.15 M NaCl, pH 7.4) as the running buffer. Briefly, the carboxymethyl dextran surface was activated with a 7 min injection of a 1:1 ratio of 0.4 M 1-ethyl-3-(3-dimethylaminopropyl) carbodiimide hydrochloride (EDC)/0.1 M N-hydroxy succinimide (NHS) at a flow rate of 10 μl/min. For capture of streptavidin, the protein was diluted to 0.2 mg/ml in 10 mM sodium acetate (pH 4.5) and captured by injecting 120 μl of onto the activated chip surface. Residual activated groups were blocked with a 7 min injection of 1 M ethanolamine (pH 8.5) and biotinylated CD137 captured to a level of 270-1500 RU. Buffer was changed to PBS/0.05% Tween 20 and a dilution series of the peptides was prepared in this buffer with a final DMSO concentration of 0.5%. The top peptide concentration was 500 nM with 6 further 2-fold or 3-fold dilutions. The SPR analysis was run at 25° C. at a flow rate of 90 μl/min with 60 seconds association and 900 seconds dissociation. After each cycle a regeneration step (10 μl of 10 mM glycine pH 2) was employed. Data were corrected for DMSO excluded volume effects as needed. All data were double-referenced for blank injections and reference surface using standard processing procedures and data processing and kinetic fitting were performed using Scrubber software, version 2.0c (BioLogic Software). Data were fitted using simple 1:1 binding model allowing for mass transport effects where appropriate.

[4] = molecular target: T1, CD137; assay: CD137 reporter assay, co-culture with EphA2 tumour cells; type: cell-based; parameters: host or cells: Jurkat reporter cells; details: tumour target EphA2, co-culture with PC3, at 100 nM; read-out: Fold Induction over Background at 100 nM
Procedure, shortened: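 Jurkat CD137 reporter cells co-cultured with tumour cells and serially diluted test articles in RPMI-1640 + 1% FBS, 6 h at 37 °C, 5% CO2. Luminescence read after Bio-Glo; fold change over cells-only background fitted log(agonist) vs response for EC50 (nM) and maximal fold induction.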

Structure (SMILES) | EC50 [1] | max IFN-y [1] | EC50 [2] | Fold Induction over Background [2] | Kd [3] | fold induction at 0.1 µM [4]
CCCC[C@@H]1NC(=O)[C@H](Cc2ccc(O)cc2)NC(=O)[C@@H]2CCCN2C(=O)[C@H](CC(=O)O)NC(=O)[C@H](C)NC(=O)[C@H](Cc2ccccc2)NC(=O)[C@@H]2CSCCC(=O)N3CN(CN(C3)C(=O)CCSC[C@@H](C(=O)N[C@@H](CNC(=O)CCOCCOCCOCCOCCOCCOCCOCCOCCOCCOCCOCCOCCn3cc(CCC(=O)NCCC(=O)N(C)CC(=O)N(C)CC(=O)N(C)CC(=O)N(C)CC(=O)N(C)CC(=O)N(C)CC(=O)N(C)CC(=O)N(C)CC(=O)N(C)CC(=O)N(C)CC(=O)N[C@H]4CSCCC(=O)N5CN6CN(C5)C(=O)CCSC[C@H](NC(=O)[C@@H](CC(=O)O)NC(=O)[C@H](Cc5cccc7ccccc57)NC(=O)[C@@H]5CCCN5C4=O)C(=O)N[C@@H](CCSC)C(=O)N[C@@H](CCCCNC(=N)N)C(=O)N[C@@H](CC(=O)O)C(=O)N[C@@H](Cc4c[nH]c5ccccc45)C(=O)N[C@@H](CO)C(=O)N[C@@H]([C@@H](C)O)C(=O)N4CCC[C@H]4C(=O)N4C[C@H](O)C[C@H]4C(=O)N[C@@H](Cc4c[nH]c5ccccc45)C(=O)N[C@H](C(N)=O)CSCCC6=O)nn3)C(N)=O)NC1=O)C(=O)CCSC[C@H](NC(=O)[C@H](C)NC(C)=O)C(=O)N[C@@H]([C@@H](C)CC)C(=O)N[C@@H](CCC(=O)O)C(=O)N[C@@H](CCC(=O)O)C(=O)NCC(=O)N[C@@H](CCC(N)=O)C(=O)N[C@@H](Cc1ccc(O)cc1)C(=O)N2 [BCY8854] | 0.89 nM | 15962 pg/mL | 1.2 nM | 30 fold | – | –
CCCC[C@@H]1NC(=O)[C@H](Cc2ccc(O)cc2)NC(=O)[C@@H]2CCCN2C(=O)[C@H](CC(=O)O)NC(=O)[C@@H](C)NC(=O)[C@H](Cc2ccccc2)NC(=O)[C@@H]2CSCCC(=O)N3CN(CN(C3)C(=O)CCSC[C@@H](C(=O)N[C@@H](CNC(=O)CCOCCOCCOCCOCCOCCOCCOCCOCCOCCOCCOCCOCCn3cc(CCC(=O)NCCC(=O)N(C)CC(=O)N(C)CC(=O)N(C)CC(=O)N(C)CC(=O)N(C)CC(=O)N(C)CC(=O)N(C)CC(=O)N(C)CC(=O)N(C)CC(=O)N(C)CC(=O)N[C@@H](C)C(=O)N[C@@H](CCCCNC(=N)N)C(=O)N[C@@H](CC(=O)O)C(=O)N[C@H]4CSCCC(=O)N5CN6CN(C5)C(=O)CCSC[C@H](NC(=O)[C@H](CC(C)C)NC(=O)[C@@H]5CCCN5C(=O)[C@H](CC(N)=O)NC(=O)[C@H](C(C)C)NC(=O)[C@H](CC(C)C)NC(=O)[C@@H]5C[C@@H](O)CN5C4=O)C(=O)N[C@@H](CC(C)C)C(=O)N[C@@H](Cc4c[nH]cn4)C(=O)N4CCC[C@H]4C(=O)N[C@H](CC(=O)O)C(=O)N[C@@H](Cc4c[nH]c5ccccc45)C(=O)N[C@@H](CCCCNC(=N)N)C(=O)N[C@H](C(N)=O)CSCCC6=O)nn3)C(N)=O)NC1=O)C(=O)CCSC[C@H](NC(=O)[C@H](C)NC(C)=O)C(=O)N[C@@H]([C@@H](C)CC)C(=O)N[C@@H](CCC(=O)O)C(=O)N[C@@H](CCC(=O)O)C(=O)NCC(=O)N[C@@H](CCC(N)=O)C(=O)N[C@@H](Cc1ccc(O)cc1)C(=O)N2 [BCY8942] | – | – | – | – | 853 nM | < 2
CCCC[C@@H]1NC(=O)[C@H](Cc2ccc(O)cc2)NC(=O)[C@@H]2CCCN2C(=O)[C@H](CC(=O)O)NC(=O)[C@H](C)NC(=O)[C@H](Cc2ccccc2)NC(=O)[C@@H]2CSCCC(=O)N3CN(CN(C3)C(=O)CCSC[C@@H](C(=O)N[C@@H](C)C(N)=O)NC1=O)C(=O)CCSC[C@H](NC(C)=O)C(=O)N[C@@H](CC(C)(C)C)C(=O)N1CCC[C@H]1C(=O)N[C@@H](CCCCNC(=O)CCc1cn(CCOCCOCCOCCOCCOCCC(=O)N[C@H]3CSCCC(=O)N4CN5CN(C4)C(=O)CCSC[C@H](NC(=O)[C@@H](CC(=O)O)NC(=O)[C@H](Cc4cccc6ccccc46)NC(=O)[C@@H]4CCCN4C3=O)C(=O)N[C@@H](CCSC)C(=O)N[C@@H](CCCCNC(=N)N)C(=O)N[C@@H](CC(=O)O)C(=O)N[C@@H](Cc3c[nH]c4ccccc34)C(=O)N[C@@H](CO)C(=O)N[C@@H]([C@@H](C)O)C(=O)N3CCC[C@H]3C(=O)N3C[C@H](O)C[C@H]3C(=O)N[C@@H](Cc3c[nH]c4ccccc34)C(=O)N[C@H](C(N)=O)CSCCC5=O)nn1)C(=O)N[C@H](C)C(=O)N1CCC[C@H]1C(=O)N[C@@H](Cc1ccc(O)cc1)C(=O)N2 [BCY10571] | 0.44 nM | 18349 pg/mL | 3.5 nM | 60 fold | – | –
